What was measured:
Type in all cases: binding, human influenza virus A
Set-up in all cases: key: “+” = binding; “−” = no binding; “(+)” = trace binding
[1] = tested on: A/Hong Kong/8/68 H3N2
[2] = tested on: A/PR/8/34 H1N1
[3] = tested on: A/2/Japan/305/57 H2N2
[4] = tested on: A/Beijing/262/95 H1N1
[5] = tested on: A/Shangdong/9/93 H3N2
[6] = tested on: A/Taiwan/1/86 H1N1
[7] = tested on: A/New Caledonia/20/99
[8] = tested on: A/Kiev/301/94 H3N2
[9] = tested on: A/X31, A/Aichi/3/75 H3N2

Measured: Binding of different human influenza virus A strains to glycolipids

Globoside
−: all assays above
